{"source": "patent US20140371074A1", "about": "“METHOD TO INCREASE PLANT YIELD” (priority 2012, published 2014)", "tested_on": "Soybean variety Latham EX32124 CystX", "assay": "Greenhouse: 2,4-D LV4 drizzled onto soil of potted plants, pod and node counts", "assay_type": "in vivo", "conditions": "for Average pods per normal node / Megacluster nodes / Normal nodes / Total nodes with pods / Pods on megacluster nodes / Pods on normal nodes / Average pods per megacluster node: 2 plants/pot; for Pods on megacluster nodes / Pods on normal nodes / Total pods per pot (2 plants): immature pods", "method": "Soybean variety ‘Latham EX32124 CystX’ was planted in 8.5 inch diameter pots and grown under lights in a greenhouse. Four seeds each were planted and later thinned to 2 plants per plot for each of 5 treatment rates of 0.47, 0.94, 1.88, 3.76, and 7.52 pounds a.e. of 2,4-D per acre. […] When the soybean plants were at the stage of growth in which pods are 3/16 inch length at one of the two uppermost nodes, the number of beginning pods was observed.\nAt this stage, household fertilizer was added to the plants along with water, and the number of nodes and pods was observed approximately ten days later, as shown in Table 3. Pod counts were for 2 plants per pot."}
{"smiles": "O=C(O)COc1ccc(Cl)cc1Cl", "note": "[2,4-D, 2,4-Dichlorophenoxyacetic acid]", "values": [{"measurement": "Beginning pods", "setting": "0.47 lbs a.e. per acre", "result": "Normal"}, {"measurement": "Average pods per normal node", "setting": "0.47 lbs a.e.", "result": 3.9}, {"measurement": "Megacluster nodes", "setting": "0.47 lbs a.e.", "result": 0}, {"measurement": "Normal nodes", "setting": "0.47 lbs a.e.", "result": 7}, {"measurement": "Total nodes with pods", "setting": "0.47 lbs a.e.", "result": 7}, {"measurement": "Pods on megacluster nodes", "setting": "0.47 lbs a.e.", "result": 0}, {"measurement": "Pods on normal nodes", "setting": "0.47 lbs a.e.", "result": 27}, {"measurement": "Total pods per pot (2 plants)", "setting": "0.47 lbs a.e.", "result": 27}, {"measurement": "Beginning pods", "setting": "0.94 lbs a.e. per acre", "result": "huge clusters of pods (megaclusters)"}, {"measurement": "Average pods per megacluster node", "setting": "0.94 lbs a.e.", "result": 12.5}, {"measurement": "Average pods per normal node", "setting": "0.94 lbs a.e.", "result": 3.6}, {"measurement": "Megacluster nodes", "setting": "0.94 lbs a.e.", "result": 6}, {"measurement": "Normal nodes", "setting": "0.94 lbs a.e.", "result": 5}, {"measurement": "Total nodes with pods", "setting": "0.94 lbs a.e.", "result": 11}, {"measurement": "Pods on megacluster nodes", "setting": "0.94 lbs a.e.", "result": 75}, {"measurement": "Pods on normal nodes", "setting": "0.94 lbs a.e.", "result": 18}, {"measurement": "Total pods per pot (2 plants)", "setting": "0.94 lbs a.e.", "result": 93}, {"measurement": "number of pods versus untreated plants", "setting": "0.94 pounds a.e. of 2,4-D", "result": "over double the number of pods"}, {"measurement": "total number of pods per plant compared to the control", "setting": "1.88, 3.76, and 7.52 pounds a.e. of 2,4-D per acre", "result": "increased total number of pods per plant"}, {"measurement": "Beginning pods", "setting": "1.88 lbs a.e. per acre", "result": "huge clusters of pods (megaclusters)"}, {"measurement": "Average pods per megacluster node", "setting": "1.88 lbs a.e.", "result": 6.0}, {"measurement": "Average pods per normal node", "setting": "1.88 lbs a.e.", "result": 3.4}, {"measurement": "Megacluster nodes", "setting": "1.88 lbs a.e.", "result": 5}, {"measurement": "Normal nodes", "setting": "1.88 lbs a.e.", "result": 5}, {"measurement": "Total nodes with pods", "setting": "1.88 lbs a.e.", "result": 10}, {"measurement": "Pods on megacluster nodes", "setting": "1.88 lbs a.e.", "result": 30}, {"measurement": "Pods on normal nodes", "setting": "1.88 lbs a.e.", "result": 17}, {"measurement": "Total pods per pot (2 plants)", "setting": "1.88 lbs a.e.", "result": 49}, {"measurement": "Beginning pods", "setting": "3.76 lbs a.e. per acre", "result": "Normal"}, {"measurement": "Average pods per megacluster node", "setting": "3.76 lbs a.e.", "result": 9.0}, {"measurement": "Average pods per normal node", "setting": "3.76 lbs a.e.", "result": 4.8}, {"measurement": "Megacluster nodes", "setting": "3.76 lbs a.e.", "result": 3}, {"measurement": "Normal nodes", "setting": "3.76 lbs a.e.", "result": 5}, {"measurement": "Total nodes with pods", "setting": "3.76 lbs a.e.", "result": 8}, {"measurement": "Pods on megacluster nodes", "setting": "3.76 lbs a.e.", "result": 27}, {"measurement": "Pods on normal nodes", "setting": "3.76 lbs a.e.", "result": 24}, {"measurement": "Total pods per pot (2 plants)", "setting": "3.76 lbs a.e.", "result": 51}, {"measurement": "Beginning pods", "setting": "7.52 lbs a.e. per acre", "result": "Normal"}, {"measurement": "Average pods per megacluster node", "setting": "7.52 lbs a.e.", "result": 9.0}, {"measurement": "Average pods per normal node", "setting": "7.52 lbs a.e.", "result": 3.6}, {"measurement": "Megacluster nodes", "setting": "7.52 lbs a.e.", "result": 2}, {"measurement": "Normal nodes", "setting": "7.52 lbs a.e.", "result": 7}, {"measurement": "Total nodes with pods", "setting": "7.52 lbs a.e.", "result": 9}, {"measurement": "Pods on megacluster nodes", "setting": "7.52 lbs a.e.", "result": 18}, {"measurement": "Pods on normal nodes", "setting": "7.52 lbs a.e.", "result": 25}, {"measurement": "Total pods per pot (2 plants)", "setting": "7.52 lbs a.e.", "result": 43}, {"measurement": "leaf damage", "setting": "7.52 pounds a.e. rate", "result": "some yellowing of leaves"}, {"measurement": "pod set", "setting": "between 0.47 and 7.52 pounds a.e. of 2,4-D per acre", "result": "excessive numbers of pods at every node"}, {"measurement": "mature slower and stay greener, longer than untreated plants", "setting": "treated plants, 0.47-7.52 pounds a.e. per acre", "result": "approximately 2 weeks"}]}
